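These data come from cells grown in 96-well plates and exposed to compound for 48 hours at five concentrations. GI50 = concentration required for 50% inhibition of growth.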 The source made the active and inactive calls. Cut-off read from the data, not from the text of the source: active = GI50 up to about 1.1 µM and inactive = higher.
Tests used:
Experiment in all cases: NCI tumour cell line growth inhibition, 48 h
[1] = test system: TK-10
[2] = test system: M14
[3] = test system: NCI-H226
[4] = test system: HCT-15
[5] = test system: LXFL 529
[6] = test system: LOX IMVI
[7] = test system: M19-MEL
[8] = test system: KM-20L2
[9] = test system: SF-268
[10] = test system: HT-29
[11] = test system: IGROV-1
[12] = test system: SF-539
[13] = test system: OVCAR-5
[14] = test system: KM12
[15] = test system: OVCAR-3
[16] = test system: UACC-62
[17] = test system: 786-0
[18] = test system: DMS-273
[19] = test system: A498
[20] = test system: SF-295
[21] = test system: RXF 393
[22] = test system: SK-MEL-2
[23] = test system: OVCAR-4
[24] = test system: HCT-116
[25] = test system: SW-620
[26] = test system: SNB-78
[27] = test system: ACHN
[28] = test system: NCI-H23
[29] = test system: RPMI-8226
[30] = test system: SNB-75
[31] = test system: A549
[32] = test system: CCRF-CEM
[33] = test system: K562
[34] = test system: DMS-114
[35] = test system: SNB-19
[36] = test system: Malme-3M
[37] = test system: HCC 2998
[38] = test system: EKVX
[39] = test system: CAKI-1
[40] = test system: OVCAR-8
[41] = test system: NCI-H522
[42] = test system: HOP-62
[43] = test system: UACC-257
[44] = test system: MOLT-4
[45] = test system: COLO 205
[46] = test system: U-251
[47] = test system: SK-OV-3
[48] = test system: NCI-H460
[49] = test system: HOP-18
[50] = test system: UO-31
[51] = test system: DLD-1
[52] = test system: SN12C
[53] = test system: SK-MEL-28
[54] = test system: SK-MEL-5
[55] = test system: HL-60
[56] = test system: XF498
[57] = test system: SR
[58] = test system: HOP-92
[59] = test system: BT-549
[60] = test system: MCF7
[61] = test system: NCI/ADR-RES
[62] = test system: MDA-MB-231
[63] = test system: T47D
[64] = test system: Hs-578T
[65] = test system: MDA-MB-435
[66] = test system: PC-3
[67] = test system: MDA-N
[68] = test system: DU-145

CC(=O)OC12c3ccccc3C1CCCC21OCCCO1 (stereo not drawn)
GI50 [1]: > 100 µM (inactive)
GI50 [2]: > 100 µM (inactive)
GI50 [3]: > 100 µM (inactive)
GI50 [4]: > 100 µM
GI50 [5]: > 100 µM (inactive)
GI50 [6]: > 100 µM (inactive)
GI50 [7]: > 100 µM (inactive)
GI50 [8]: > 100 µM (inactive)
GI50 [9]: > 100 µM (inactive)
GI50 [10]: > 100 µM (inactive)
GI50 [11]: > 100 µM (inactive)
GI50 [12]: > 100 µM (inactive)
GI50 [13]: > 100 µM (inactive)
GI50 [14]: > 100 µM (inactive)
GI50 [15]: > 100 µM (inactive)
GI50 [16]: > 100 µM (inactive)
GI50 [17]: > 100 µM (inactive)
GI50 [18]: > 100 µM (inactive)
GI50 [19]: > 100 µM (inactive)
GI50 [20]: > 100 µM (inactive)
GI50 [21]: > 100 µM (inactive)
GI50 [22]: > 100 µM (inactive)
GI50 [23]: > 100 µM (inactive)
GI50 [24]: > 100 µM (inactive)
GI50 [25]: > 100 µM (inactive)
GI50 [26]: > 100 µM (inactive)
GI50 [27]: > 100 µM (inactive)
GI50 [28]: > 100 µM (inactive)
GI50 [29]: > 100 µM (inactive)
GI50 [30]: 37.5 µM (inactive)
GI50 [31]: > 100 µM (inactive)
GI50 [32]: > 100 µM (inactive)
GI50 [33]: > 100 µM (inactive)
GI50 [34]: > 100 µM (inactive)
GI50 [35]: > 100 µM (inactive)
GI50 [36]: > 100 µM (inactive)
GI50 [37]: > 100 µM (inactive)
GI50 [38]: > 100 µM (inactive)
GI50 [39]: > 100 µM (inactive)
GI50 [40]: > 100 µM (inactive)
GI50 [41]: > 100 µM (inactive)
GI50 [42]: > 100 µM (inactive)
GI50 [43]: > 100 µM (inactive)
GI50 [44]: > 100 µM (inactive)
GI50 [45]: > 100 µM (inactive)
GI50 [46]: > 100 µM (inactive)
GI50 [47]: > 100 µM (inactive)
GI50 [48]: > 100 µM (inactive)
GI50 [49]: > 100 µM (inactive)
GI50 [50]: > 100 µM (inactive)
GI50 [51]: > 100 µM (inactive)
GI50 [52]: > 100 µM (inactive)
GI50 [53]: > 100 µM (inactive)

CC1(C)CC(=O)C(/C(=N/NC(=S)NN)C(=O)Nc2nc3ccc([N+](=O)[O-])cc3s2)C(=O)C1
GI50 [1]: > 100 µM (inactive)
GI50 [54]: > 100 µM (inactive)
GI50 [55]: > 100 µM (inactive)
GI50 [2]: > 100 µM (inactive)
GI50 [3]: 55.5 µM (inactive)
GI50 [4]: > 100 µM
GI50 [5]: > 100 µM (inactive)
GI50 [56]: > 100 µM (inactive)
GI50 [6]: > 100 µM (inactive)
GI50 [7]: > 100 µM (inactive)
GI50 [8]: > 100 µM (inactive)
GI50 [9]: > 100 µM (inactive)
GI50 [10]: > 100 µM (inactive)
GI50 [11]: > 100 µM (inactive)
GI50 [12]: > 100 µM (inactive)
GI50 [13]: > 100 µM (inactive)
GI50 [14]: > 100 µM (inactive)
GI50 [15]: 67.9 µM (inactive)
GI50 [16]: > 100 µM (inactive)
GI50 [17]: > 100 µM (inactive)
GI50 [19]: > 100 µM (inactive)
GI50 [20]: > 100 µM (inactive)
GI50 [21]: > 100 µM (inactive)
GI50 [22]: > 100 µM (inactive)
GI50 [23]: > 100 µM (inactive)
GI50 [24]: > 100 µM (inactive)
GI50 [25]: > 100 µM (inactive)
GI50 [26]: > 100 µM (inactive)
GI50 [27]: > 100 µM (inactive)
GI50 [28]: > 100 µM (inactive)
GI50 [30]: > 100 µM (inactive)
GI50 [31]: > 100 µM (inactive)
GI50 [32]: 38.2 µM (inactive)
GI50 [33]: 62.1 µM (inactive)
GI50 [57]: > 100 µM (inactive)
GI50 [34]: > 100 µM (inactive)
GI50 [35]: > 100 µM (inactive)
GI50 [36]: > 100 µM (inactive)
GI50 [37]: > 100 µM (inactive)
GI50 [38]: > 100 µM (inactive)
GI50 [39]: > 100 µM (inactive)
GI50 [40]: > 100 µM (inactive)
GI50 [41]: > 100 µM (inactive)
GI50 [42]: > 100 µM (inactive)
GI50 [43]: > 100 µM (inactive)
GI50 [44]: 55.1 µM (inactive)
GI50 [45]: > 100 µM (inactive)
GI50 [46]: > 100 µM (inactive)
GI50 [47]: > 100 µM (inactive)
GI50 [58]: > 100 µM (inactive)
GI50 [48]: > 100 µM (inactive)
GI50 [49]: 76.7 µM (inactive)
GI50 [50]: 89.7 µM (inactive)
GI50 [51]: > 100 µM (inactive)
GI50 [52]: > 100 µM (inactive)
GI50 [53]: > 100 µM (inactive)

O=C(Nc1cccc(C(F)(F)F)c1)c1cc(-c2ccccc2)nc(S)n1
GI50 [55]: > 100 µM (inactive)
GI50 [2]: > 100 µM (inactive)
GI50 [3]: > 100 µM (inactive)
GI50 [4]: > 100 µM
GI50 [5]: > 100 µM (inactive)
GI50 [6]: > 100 µM (inactive)
GI50 [7]: > 100 µM (inactive)
GI50 [8]: > 100 µM (inactive)
GI50 [10]: > 100 µM (inactive)
GI50 [13]: > 100 µM (inactive)
GI50 [14]: > 100 µM (inactive)
GI50 [15]: > 100 µM (inactive)
GI50 [18]: > 100 µM (inactive)
GI50 [20]: > 100 µM (inactive)
GI50 [22]: > 100 µM (inactive)
GI50 [23]: > 100 µM (inactive)
GI50 [24]: > 100 µM (inactive)
GI50 [25]: > 100 µM (inactive)
GI50 [57]: > 100 µM (inactive)
GI50 [35]: > 100 µM (inactive)
GI50 [36]: > 100 µM (inactive)
GI50 [37]: > 100 µM (inactive)
GI50 [39]: > 100 µM (inactive)
GI50 [40]: > 100 µM (inactive)
GI50 [42]: > 100 µM (inactive)
GI50 [43]: > 100 µM (inactive)
GI50 [45]: > 100 µM (inactive)
GI50 [58]: > 100 µM (inactive)
GI50 [48]: > 100 µM (inactive)
GI50 [49]: > 100 µM (inactive)
GI50 [50]: > 100 µM (inactive)
GI50 [52]: > 100 µM (inactive)

CCCCCCCCCCCC[C@@H](O)[C@H]1CC[C@H]([C@H](O)CCCC[C@H](O)CCCCC[C@@H](O)CC2=C[C@H](C)OC2=O)O1
GI50 [1]: 3.07 µM (inactive)
GI50 [54]: 0.0143 µM (active)
GI50 [55]: 0.103 µM (active)
GI50 [2]: 2.45 µM (inactive)
GI50 [3]: 3.11 µM (inactive)
GI50 [4]: 2.39 µM
GI50 [5]: 1.84 µM (inactive)
GI50 [6]: 1.19 µM (inactive)
GI50 [7]: 1.69 µM (inactive)
GI50 [8]: 2.19 µM (inactive)
GI50 [59]: 10 µM (inactive)
GI50 [9]: 1.86 µM (inactive)
GI50 [10]: 2.1 µM (inactive)
GI50 [11]: 0.61 µM (active)
GI50 [60]: 1.64 µM (inactive)
GI50 [61]: 1.25 µM (inactive)
GI50 [12]: 2.97 µM (inactive)
GI50 [13]: 1.18 µM (inactive)
GI50 [14]: 3.35 µM (inactive)
GI50 [15]: 0.569 µM (active)
GI50 [16]: 1.87 µM (inactive)
GI50 [17]: 2.82 µM (inactive)
GI50 [62]: 3.31 µM (inactive)
GI50 [18]: 1.57 µM (inactive)
GI50 [19]: 3.55 µM (inactive)
GI50 [20]: < 0.0486 µM (active)
GI50 [21]: 3.55 µM (inactive)
GI50 [22]: 0.867 µM (active)
GI50 [23]: 0.931 µM (active)
GI50 [24]: 0.135 µM (active)
GI50 [63]: 2.39 µM (inactive)
GI50 [25]: 3.22 µM (inactive)
GI50 [26]: 3.95 µM (inactive)
GI50 [27]: 0.116 µM (active)
GI50 [28]: 0.034 µM (active)
GI50 [29]: 0.362 µM (active)
GI50 [64]: 3.17 µM (inactive)
GI50 [65]: 1.98 µM (inactive)
GI50 [30]: 2.92 µM (inactive)
GI50 [31]: 1.29 µM (inactive)
GI50 [32]: 1.18 µM (inactive)
GI50 [33]: 0.213 µM (active)
GI50 [57]: 2.54 µM (inactive)
GI50 [34]: < 0.01 µM (active)
GI50 [35]: 2.83 µM (inactive)
GI50 [36]: 2.09 µM (inactive)
GI50 [37]: 3.43 µM (inactive)
GI50 [66]: 1.53 µM (inactive)
GI50 [38]: 0.562 µM (active)
GI50 [67]: 2.08 µM (inactive)
GI50 [39]: 2.64 µM (inactive)
GI50 [40]: 3.74 µM (inactive)
GI50 [41]: 0.565 µM (active)
GI50 [42]: 2.59 µM (inactive)
GI50 [43]: 0.0168 µM (active)
GI50 [44]: 0.363 µM (active)
GI50 [45]: 1.75 µM (inactive)
GI50 [46]: 2.78 µM (inactive)
GI50 [47]: 4.03 µM (inactive)
GI50 [58]: 2.34 µM (inactive)
GI50 [48]: 2.07 µM (inactive)
GI50 [49]: 3.23 µM (inactive)
GI50 [50]: 1.05 µM (active)
GI50 [51]: 2.67 µM (inactive)
GI50 [52]: 3.78 µM (inactive)
GI50 [68]: 6.4 µM (inactive)
GI50 [53]: 2.8 µM (inactive)

Reference: ChEMBL document CHEMBL1201862, “PubChem BioAssay data set” (2004)
